# Test results as given in patent US10988459B2 (priority 2015, dated 2021).
# pKi: −log10 of the molar value.
# Target: human RIP1 kinase domain (2-375) (Homo sapiens (Human), UniProt Q13546)
# Assay: biochemical
# Assay type: biochemical
# Conditions: RIP1 Ki
# Summary of the method: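 Ki^app comes from Morrison tight-binding fits of fractional activity versus compound concentration. Activity was read as ADP production, via tracer displacement lowering fluorescence polarization (633 nm laser). Conditions: 2 h, 50 nM insect-cell-expressed enzyme, 50 uM ATP, 30 mM MgCl2, 1 mM DTT, 0.5% DMSO, pH 7.5 Hepes.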
# Sequence of human RIP1 kinase domain (2-375) (Q13546 2-375): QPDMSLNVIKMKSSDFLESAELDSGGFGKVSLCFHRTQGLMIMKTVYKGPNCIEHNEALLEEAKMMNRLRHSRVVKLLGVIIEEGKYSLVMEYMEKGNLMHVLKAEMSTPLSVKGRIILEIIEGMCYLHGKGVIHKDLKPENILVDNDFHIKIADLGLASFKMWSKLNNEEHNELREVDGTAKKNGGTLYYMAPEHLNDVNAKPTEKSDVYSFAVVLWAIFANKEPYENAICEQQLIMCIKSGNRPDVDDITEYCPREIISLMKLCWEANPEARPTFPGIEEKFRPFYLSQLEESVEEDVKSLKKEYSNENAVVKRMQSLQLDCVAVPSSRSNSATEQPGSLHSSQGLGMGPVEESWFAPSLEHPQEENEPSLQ
row,Structure (SMILES),pKi
1,"CN1C(=O)[C@@H](NC(=O)c2n[nH]c3ccc(C(F)(F)F)cc23)COc2ccccc21 [Example 115, (S)—N-(5-methyl-4-oxo-2,3,4,5-tetrahydrobenzo[b][1,4]oxazepin-3-yl)-5-(trifluoromethyl)-1H-indazole-3-carboxamide]",8.31

# Same assay, conditions: Table 1; apparent Ki (Morrison tight-binding fit); 50 nM RIP1 kinase domain, 50 uM ATP, 2 hours incubation; read-out: RIP1 Ki
row,Structure (SMILES),pKi
1,"Cc1cc2n(n1)CCC(NC(=O)c1ncn3ccc(C(F)(F)F)cc13)C(=O)N2C (stereo not drawn) [Example 76, N-(2,4-dimethyl-5-oxo-5,6,7,8-tetrahydro-4H-pyrazolo[1,5-a][1,3]diazepin-6-yl)-7-(trifluoromethyl)imidazo[1,5-a]pyridine-1-carboxamide]",6.27
2,"CC12Cc3[nH]nc(C(=O)N[C@H]4CCc5cc(Cl)ccc5NC4=O)c3CC1C2 (stereo partly drawn) [Example 50, N-((S)-7-chloro-2-oxo-2,3,4,5-tetrahydro-1H-benzo[b]azepin-3-yl)-5a-methyl-1,4,4a,5,5a,6-hexahydrocyclopropa[f]indazole-3-carboxamide]",5.41
3,"Cc1cc2n(n1)CCC(NC(=O)c1ncn(Cc3ccccc3)n1)C(=O)N2C (stereo not drawn) [Example 72, 1-benzyl-N-(2,4-dimethyl-5-oxo-5,6,7,8-tetrahydro-4H-pyrazolo[1,5-a][1,3]diazepin-6-yl)-1H-1,2,4-triazole-3-carboxamide]",7.17
4,"CN1C(=O)[C@@H](NC(=O)c2n[nH]c3ccc(Cl)cc23)COc2ccccc21 [Example 78, (S)-5-chloro-N-(5-methyl-4-oxo-2,3,4,5-tetrahydrobenzo[b][1,4]oxazepin-3-yl)-1H-indazole-3-carboxamide]",7.68

# Same assay, conditions: Table 5; apparent Ki (Morrison tight-binding fit); 50 nM RIP1 kinase domain, 50 uM ATP, 2 hours incubation; read-out: Ki
row,Structure (SMILES),pKi
1,"Cc1cc2n(n1)CC[C@H](NC(=O)c1cn(Cc3ccccc3)cn1)C(=O)N2C [Example 751, 1-benzyl-N-[(6S)-2,4-dimethyl-5-oxo-7,8-dihydro-6H-pyrazolo[1,5-a][1,3]diazepin-6-yl]imidazole-4-carboxamide]",7.36
2,CCOCCc1cc2n(n1)CC[C@H](NC(=O)c1ncn(Cc3ccccc3)n1)C(=O)N2C [Example 758],7.07

# Same assay, conditions: human RIP1 kinase domain (2-375), 50 uM ATP, 2 hours incubation, Transcreener ADP assay; read-out: RIP1 Ki
row,Structure (SMILES),pKi
1,"O=C(N[C@H]1COc2cc(F)cc(F)c2NC1=O)c1n[nH]c2c1C[C@H](C(F)(F)F)CC2 (single isomer, unassigned) [Example 87]",6.98

# Same assay, conditions: human RIP1 kinase domain (2-375), Transcreener ADP assay, 50 uM ATP, 2 hours incubation; read-out: RIP1 Ki
row,Structure (SMILES),pKi
1,"CN1C(=O)C(NC(=O)c2ncn(CC3CC(F)(F)C3)n2)CCn2nc(C3CC3)cc21 (stereo not drawn) [Example 269, N-(2-cyclopropyl-4-methyl-5-oxo-5,6,7,8-tetrahydro-4H-pyrazolo[1,5-a][1,3]diazepin-6-yl)-1-((3,3-difluorocyclobutyl)methyl)-1H-1,2,4-triazole-3-carboxamide]",6.09
2,"CN1C(=O)[C@@H](NC(=O)c2ncn(Cc3ccc(F)c(F)c3)n2)CCn2nc([C@H]3CC3(F)F)cc21 [Example 313, 1-(3,4-difluorobenzyl)-N—((S)-2-((R)-2,2-difluorocyclopropyl)-4-methyl-5-oxo-5,6,7,8-tetrahydro-4H-pyrazolo[1,5-a][1,3]diazepin-6-yl)-1H-1,2,4-triazole-3-carboxamide]",5.23
3,"CN1C(=O)C(NC(=O)c2n[nH]c(Cc3ccccc3)n2)CCn2nc(C3CCOCC3)cc21 (stereo not drawn) [Example 235, 5-benzyl-N-(4-methyl-5-oxo-2-(tetrahydro-2H-pyran-4-yl)-5,6,7,8-tetrahydro-4H-pyrazolo[1,5-a][1,3]diazepin-6-yl)-1H-1,2,4-triazole-3-carboxamide]",6.65
4,"CN1C(=O)[C@@H](NC(=O)c2ncn(Cc3ccccc3)n2)CCn2nc(C3CC3(F)F)cc21 (stereo partly drawn) [Example 283, 1-benzyl-N-((6S)-2-(2,2-difluorocyclopropyl)-4-methyl-5-oxo-5,6,7,8-tetrahydro-4H-pyrazolo[1,5-a][1,3]diazepin-6-yl)-1H-1,2,4-triazole-3-carboxamide]",7.14
5,"Cc1cc2n(n1)CC[C@H](NC(=O)c1ncn(C(C)c3ccccc3)n1)C(=O)N2C (stereo partly drawn) [Example 271, N—((S)-2,4-dimethyl-5-oxo-5,6,7,8-tetrahydro-4H-pyrazolo[1,5-a][1,3]diazepin-6-yl)-1-(1-phenylethyl)-1H-1,2,4-triazole-3-carboxamide]",7.03
6,"CC[C@@]1(C)OCc2cnc(C(=O)N[C@H]3CCn4nc(C)cc4N(C)C3=O)cc21 [Example 275, (R)—N—((S)-2,4-dimethyl-5-oxo-5,6,7,8-tetrahydro-4H-pyrazolo[1,5-a][1,3]diazepin-6-yl)-1-ethyl-1-methyl-1,3-dihydrofuro[3,4-c]pyridine-6-carboxamide]",5.96
7,"CN1C(=O)[C@H](NC(=O)c2ncn(Cc3ccc(F)cc3F)n2)CCn2nc(C3CC3)cc21 [Example 298, (R)—N-(2-cyclopropyl-4-methyl-5-oxo-5,6,7,8-tetrahydro-4H-pyrazolo[1,5-a][1,3]diazepin-6-yl)-1-(2,4-difluorobenzyl)-1H-1,2,4-triazole-3-carboxamide]",5.59
8,"Cc1cc2n(n1)CCC(NC(=O)c1ncn(CC3CCC(F)(F)CC3)n1)C(=O)N2C (stereo not drawn) [Example 246, 1-((4,4-difluorocyclohexyl)methyl)-N-(2,4-dimethyl-5-oxo-5,6,7,8-tetrahydro-4H-pyrazolo[1,5-a][1,3]diazepin-6-yl)-1H-1,2,4-triazole-3-carboxamide]",6.16
9,"CN1C(=O)[C@@H](NC(=O)c2ncn(CC3(C)CC3)n2)CCn2nc(C3CC3)cc21 [Example 308, (S)—N-(2-cyclopropyl-4-methyl-5-oxo-5,6,7,8-tetrahydro-4H-pyrazolo[1,5-a][1,3]diazepin-6-yl)-1-((1-methylcyclopropyl)methyl)-1H-1,2,4-triazole-3-carboxamide]",6.77
10,"CC(c1cnc2[nH]nc(C(=O)N[C@H]3COc4ccccc4N(C)C3=O)c2c1)C(F)(F)F (stereo partly drawn) [Example 296, N—((S)-5-methyl-4-oxo-2,3,4,5-tetrahydrobenzo[b][1,4]oxazepin-3-yl)-5-(1,1,1-trifluoropropan-2-yl)-1H-pyrazolo[3,4-b]pyridine-3-carboxamide]",7.21
11,"CN1C(=O)[C@@H](NC(=O)c2cc(C3(O)CCCC3)ccn2)COc2ccccc21 [Example 328, (S)-4-(1-hydroxycyclopentyl)-N-(5-methyl-4-oxo-2,3,4,5-tetrahydrobenzo[b][1,4]oxazepin-3-yl)picolinamide]",6.00
12,"CN1C(=O)[C@@H](NC(=O)c2nnc(Cc3ccc(F)cc3)[nH]2)CCn2nc(C3CC3)cc21 [Example 332, (S)—N-(2-cyclopropyl-4-methyl-5-oxo-5,6,7,8-tetrahydro-4H-pyrazolo[1,5-a][1,3]diazepin-6-yl)-5-(4-fluorobenzyl)-4H-1,2,4-triazole-3-carboxamide]",7.06

# Same assay, conditions: tight-binding apparent inhibition constant; human RIP1 kinase domain (2-375) 50 nM, 50 uM ATP, 2 hours; read-out: Ki
row,Structure (SMILES),pKi
1,"CN1C(=O)[C@@H](NC(=O)c2ncc3cnn(C4CCCC4)c3n2)COc2ccccc21 [Example 485, 1-cyclopentyl-N-[(3S)-5-methyl-4-oxo-2,3-dihydro-1,5-benzoxazepin-3-yl]pyrazolo[3,4-d]pyrimidine-6-carboxamide]",8.38
2,"Cc1nn2c(c1C)N(C)C(=O)[C@@H](NC(=O)c1nnc(Cc3cccc(F)c3F)[nH]1)CC2 [Example 490, 5-[(2,3-difluorophenyl)methyl]-N-(6S)-2,3,4-trimethyl-5-oxo-7,8-dihydro-6H-pyrazolo[1,5-a][1,3]diazepin-6-yl-4H-1,2,4-triazole-3-carboxamide]",7.40
3,"Cc1cc2n(n1)CC[C@H](NC(=O)c1ncc3c(n1)[C@](C)(CC(F)(F)F)OC3)C(=O)N2C (racemic) [Example 689, rac-(75)-7-methyl-N-[rac-(6S)-2,4-dimethyl-5-oxo-7,8-dihydro-6H-pyrazolo[1,5-a][1,3diazepin-6-yl]-7-(2,2,2-trifluoroethyl)-5H-furo[3,4-d]pyrimidine-2-carboxamide]",6.75
4,CN1C(=O)[C@@H](NC(=O)c2ncn(Cc3ncccc3Cl)n2)CCn2nc(C3CC3)cc21 [Example 658],7.27
5,"CN1C(=O)[C@@H](NC(=O)c2ncc3cnn(C4CCCOC4)c3n2)COc2ccccc21 (stereo partly drawn) [Example 563, N-[(3S)-5-methyl-4-oxo-2,3-dihydro-1,5-benzoxazepin-3-yl]-1-tetrahydropyran-3-yl-pyrazolo[3,4-d]pyrimidine-6-carboxamide]",7.27
6,"CN1C(=O)[C@@H](NC(=O)c2nccc(C3(O)CCC3)n2)COc2ccccc21 [Example 537, 4-(1-hydroxycyclobutyl)-N-[(3S)-5-methyl-4-oxo-2,3-dihydro-1,5-benzoxazepin-3-yl]pyrimidine-2-carboxamide]",5.68
7,"CN1C(=O)[C@@H](NC(=O)c2nnc(Cc3ccccc3)[nH]2)CCn2nc3c(c21)CS(=O)(=O)C3 [Example 453, (S)-5-Benzyl-N-(1-methyl-9,9-dioxido-2-oxo-1,2,3,4,5,10-hexahydro-8H-thieno[3′,4′:3,4]pyrazolo[1,5-a][1,3]diazepin-3-yl)-4H-1,2,4-triazole-3-carboxamide]",6.52
8,"CC[C@H]1C[C@H](Cn2cnc(C(=O)N[C@H]3CCn4nccc4N(C)C3=O)n2)C1 [Example 503, N—((S)-4-methyl-5-oxo-5,6,7,8-tetrahydro-4H-pyrazolo[1,5-a][1,3]diazepin-6-yl)-1-(((1S,3 S)-3-ethylcyclobutyl)methyl)-1H-1,2,4-triazole-3-carboxamide]",7.64
9,"Cc1cc2n(n1)CC[C@H](NC(=O)c1ncn(Cc3cccc(Cl)c3)n1)C(=O)N2C [Example 521, 1-[(3-chlorophenyl)methyl]-N-(6S)-2,4-dimethyl-5-oxo-7,8-dihydro-6H-pyrazolo[1,5-a][1,3]diazepin-6-yl-1,2,4-triazole-3-carboxamide]",8.16
10,"CN1C(=O)[C@@H](NC(=O)c2nc3n(n2)[C@H](c2ccccc2)CCC3)CCn2nccc21 (single isomer, unassigned) [Example 384]",5.68
